Earlier results as cited in patent US11718832B2, “Method to reduce oncogenic potential of induced pluripotent stem cells from aged donors” (MEMORIAL SLOAN-KETTERING CANCER CENTER, priority 2014, dated 2023).

Test system: GSS
Settings: literature

Row | Compound | Inhibition of GSS
1 | [N-]=[N+]=CC(=O)CC[C@H](N)C(=O)O [6-Diazo-5-oxo-L-norleucine] | inhibit GSS
2 | CCCCS(=N)(=O)CCC(N)C(=O)O (stereo not drawn) [buthionine sulfoximine] | inhibit GSS
3 | [N-]=[N+]=CC(=O)OC[C@H](N)C(=O)O [azaserine] | inhibit GSS
